From PubChem BioAssay (NCI)
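All cell lines were grown in 96-well plates and treated with compound for 48 hours. Abbreviation: GI50, concentration required for 50% inhibition of growth. TGI marks complete inhibition of growth.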

Columns and labels:
Experiment in all cases: DTP human tumour cell line panel, 48 h
KM12 colon = tested on: KM12 colon
NCI-H23 lung = tested on: NCI-H23 lung
MOLT-4 leukemia = tested on: MOLT-4 leukemia
K-562 leukemia = tested on: K-562 leukemia
TK-10 renal = tested on: TK-10 renal
RXF 393 renal = tested on: RXF 393 renal
HT29 colon = tested on: HT29 colon
PC-3 prostate = tested on: PC-3 prostate
DU-145 prostate = tested on: DU-145 prostate
RPMI-8226 leukemia = tested on: RPMI-8226 leukemia
CCRF-CEM leukemia = tested on: CCRF-CEM leukemia
ACHN renal = tested on: ACHN renal
SK-MEL-2 melanoma = tested on: SK-MEL-2 melanoma
COLO 205 colon = tested on: COLO 205 colon
OVCAR-8 ovarian = tested on: OVCAR-8 ovarian
MCF7 breast = tested on: MCF7 breast
HOP-62 NSCLC = tested on: HOP-62 NSCLC
UACC-257 melanoma = tested on: UACC-257 melanoma
HCT-15 colon = tested on: HCT-15 colon
HCC-2998 colon = tested on: HCC-2998 colon
SR leukemia = tested on: SR leukemia
M14 melanoma = tested on: M14 melanoma
786-0 renal = tested on: 786-0 renal
A549 NSCLC = tested on: A549 NSCLC
HS 578T breast = tested on: HS 578T breast
BT-549 breast = tested on: BT-549 breast
SF-539 CNS = tested on: SF-539 CNS
OVCAR-5 ovarian = tested on: OVCAR-5 ovarian
SNB-19 CNS = tested on: SNB-19 CNS
SK-OV-3 ovarian = tested on: SK-OV-3 ovarian
NCI-H522 lung = tested on: NCI-H522 lung
SNB-75 CNS = tested on: SNB-75 CNS
HCT-116 colon = tested on: HCT-116 colon
SK-MEL-28 melanoma = tested on: SK-MEL-28 melanoma
NCI/ADR-RES ovarian = tested on: NCI/ADR-RES ovarian
U251 CNS = tested on: U251 CNS
NCI-H226 lung = tested on: NCI-H226 lung
SF-295 CNS = tested on: SF-295 CNS
SK-MEL-5 melanoma = tested on: SK-MEL-5 melanoma
SW-620 colon = tested on: SW-620 colon
HOP-92 NSCLC = tested on: HOP-92 NSCLC
CAKI-1 renal = tested on: CAKI-1 renal
NCI-H460 lung = tested on: NCI-H460 lung
UACC-62 melanoma = tested on: UACC-62 melanoma
EKVX NSCLC = tested on: EKVX NSCLC
SN12C renal = tested on: SN12C renal
MDA-MB-435 = tested on: MDA-MB-435
HL-60(TB) leukemia = tested on: HL-60(TB) leukemia
SF-268 CNS = tested on: SF-268 CNS
A498 renal = tested on: A498 renal
OVCAR-4 ovarian = tested on: OVCAR-4 ovarian
IGROV1 ovarian = tested on: IGROV1 ovarian
LOX IMVI melanoma = tested on: LOX IMVI melanoma
MDA-MB-231 breast = tested on: MDA-MB-231 breast
UO-31 renal = tested on: UO-31 renal
OVCAR-3 ovarian = tested on: OVCAR-3 ovarian

Molecule `CCN1C(=O)N(CC)C2SC(N/N=C/c3ccccc3)=NC21` (centres undefined) has a GI50 (KM12 colon) of 148 nM, a TGI (KM12 colon) of over 100000 nM and a GI50 (NCI-H23 lung) of 474 nM. The TGI (NCI-H23 lung) was over 100000 nM, the GI50 (MOLT-4 leukemia) was 502 nM and the TGI (MOLT-4 leukemia) was over 100000 nM. The GI50 (K-562 leukemia) was 215 nM, the TGI (K-562 leukemia) was over 100000 nM and the TGI (TK-10 renal) was over 100000 nM. It also gave a GI50 (RXF 393 renal) of 171 nM, a TGI (RXF 393 renal) of 503 nM and a GI50 (HT29 colon) of 320 nM. For the same molecule, the TGI (HT29 colon) was over 100000 nM, the GI50 (PC-3 prostate) was 359 nM and the TGI (PC-3 prostate) was over 100000 nM. For the same molecule, the GI50 (DU-145 prostate) was 441 nM, the TGI (DU-145 prostate) was over 100000 nM and the GI50 (RPMI-8226 leukemia) was 381 nM. The TGI (RPMI-8226 leukemia) was over 100000 nM, the GI50 (CCRF-CEM leukemia) was 342 nM and the TGI (CCRF-CEM leukemia) was over 100000 nM. The GI50 (ACHN renal) was 943 nM, the TGI (ACHN renal) was over 100000 nM and the GI50 (SK-MEL-2 melanoma) was 317 nM. For the same molecule, the TGI (SK-MEL-2 melanoma) was over 100000 nM, the GI50 (COLO 205 colon) was 300 nM and the TGI (COLO 205 colon) was 945 nM. For the same molecule, the GI50 (OVCAR-8 ovarian) was 473 nM, the TGI (OVCAR-8 ovarian) was over 100000 nM and the GI50 (MCF7 breast) was 301 nM. For the same molecule, the TGI (MCF7 breast) was over 100000 nM, the GI50 (HOP-62 NSCLC) was 567 nM and the TGI (HOP-62 NSCLC) was over 100000 nM. For the same molecule, the TGI (UACC-257 melanoma) was over 100000 nM, the GI50 (HCT-15 colon) was 349 nM and the TGI (HCT-15 colon) was over 100000 nM. The GI50 (HCC-2998 colon) was 564 nM, the TGI (HCC-2998 colon) was 34000 nM and the GI50 (SR leukemia) was 194 nM. The TGI (SR leukemia) was over 100000 nM, the GI50 (M14 melanoma) was 234 nM and the TGI (M14 melanoma) was 4670 nM. The GI50 (786-0 renal) was 583 nM, the TGI (786-0 renal) was 44500 nM and the GI50 (A549 NSCLC) was 606 nM. It also gave a TGI (A549 NSCLC) of over 100000 nM, a GI50 (HS 578T breast) of 312 nM and a TGI (HS 578T breast) of over 100000 nM. For the same molecule, the GI50 (BT-549 breast) was 464 nM, the TGI (BT-549 breast) was 2300 nM and the GI50 (SF-539 CNS) was 232 nM. The TGI (SF-539 CNS) was 683 nM, the GI50 (OVCAR-5 ovarian) was 521 nM and the TGI (OVCAR-5 ovarian) was over 100000 nM. It also gave a GI50 (SNB-19 CNS) of 468 nM, a TGI (SNB-19 CNS) of over 100000 nM and a GI50 (SK-OV-3 ovarian) of 614 nM. It also gave a TGI (SK-OV-3 ovarian) of over 100000 nM, a GI50 (NCI-H522 lung) of 210 nM and a TGI (NCI-H522 lung) of 735 nM. The GI50 (SNB-75 CNS) was 173 nM, the GI50 (HCT-116 colon) was 371 nM and the TGI (HCT-116 colon) was 19800 nM. It also gave a GI50 (SK-MEL-28 melanoma) of 1680 nM, a TGI (SK-MEL-28 melanoma) of over 100000 nM and a GI50 (NCI/ADR-RES ovarian) of 327 nM. It also gave a TGI (NCI/ADR-RES ovarian) of over 36100 nM, a GI50 (U251 CNS) of 343 nM and a TGI (U251 CNS) of over 100000 nM. The GI50 (NCI-H226 lung) was 754 nM, the TGI (NCI-H226 lung) was over 100000 nM and the GI50 (SF-295 CNS) was 282 nM. It also gave a TGI (SF-295 CNS) of over 71600 nM, a GI50 (SK-MEL-5 melanoma) of 614 nM and a TGI (SK-MEL-5 melanoma) of 22700 nM. The GI50 (SW-620 colon) was 394 nM, the TGI (SW-620 colon) was over 100000 nM and the GI50 (HOP-92 NSCLC) was 2780 nM. For the same molecule, the TGI (HOP-92 NSCLC) was over 30300 nM, the GI50 (CAKI-1 renal) was 403 nM and the TGI (CAKI-1 renal) was over 100000 nM. The GI50 (NCI-H460 lung) was 367 nM, the TGI (NCI-H460 lung) was over 34200 nM and the GI50 (UACC-62 melanoma) was 390 nM. For the same molecule, the TGI (UACC-62 melanoma) was over 100000 nM, the GI50 (EKVX NSCLC) was 583 nM and the TGI (EKVX NSCLC) was over 100000 nM. The GI50 (SN12C renal) was 557 nM, the TGI (SN12C renal) was over 100000 nM and the GI50 (MDA-MB-435) was 84.8 nM. For the same molecule, the TGI (MDA-MB-435) was 317 nM, the GI50 (HL-60(TB) leukemia) was 257 nM and the TGI (HL-60(TB) leukemia) was 932 nM. The GI50 (SF-268 CNS) was 3410 nM, the TGI (SF-268 CNS) was over 100000 nM and the GI50 (A498 renal) was 227 nM. For the same molecule, the TGI (A498 renal) was 785 nM, the GI50 (OVCAR-4 ovarian) was over 88900 nM and the TGI (OVCAR-4 ovarian) was over 100000 nM. The GI50 (IGROV1 ovarian) was 622 nM, the TGI (IGROV1 ovarian) was over 100000 nM and the GI50 (LOX IMVI melanoma) was 572 nM. The TGI (LOX IMVI melanoma) was over 100000 nM, the GI50 (MDA-MB-231 breast) was 656 nM and the TGI (MDA-MB-231 breast) was over 100000 nM. The GI50 (UO-31 renal) was 718 nM, the TGI (UO-31 renal) was over 100000 nM and the GI50 (OVCAR-3 ovarian) was 395 nM. For the same molecule, the TGI (OVCAR-3 ovarian) was over 100000 nM.
